Data on 3 compounds can be found in ChEMBL document CHEMBL4699427, “A3- and A2B-fluorocorroles: synthesis, X-ray characterization and antiviral activity evaluation against human cytomegalovirus infection” (RSC Med Chem, 2020).

Calls of active or inactive are those of the source. No cut-off for these calls is given here.

Data set [1] is described as follows: Cytotoxicity against human MRC5 cells assessed as reduction in cell viability incubated for 6 days by Hoechst 33342 staining based microscopic analysis. Particulars: time 6 day.
The nature of data set [2]: Cytotoxicity against human ARPE-19 cells assessed as reduction in cell viability incubated for 6 days by Hoechst 33342 staining based microscopic analysis. The following applies: time 6 day.
The test system of data set [3] is Human betaherpesvirus 5. Nature of the data set: Antiviral activity against Human Cytomegalovirus infected in human MRC5 cells assessed as reduction in infection rate incubated for 6 days by Hoechst 33342 staining based microscopic analysis. Format: functional, cell-based. The following applies: Human betaherpesvirus 5, MRC5, 144 h; read-out: IC50.
The subject of data set [4] is Human betaherpesvirus 5. The experiment in a line: Antiviral activity against human Cytomegalovirus infected in human ARPE-19 cells assessed as reduction in infection rate incubated for 6 days by Hoechst 33342 staining based microscopic analysis. It is filed as functional, cell-based. The following applies: Human betaherpesvirus 5, ARPE-19, 144 h; read-out: IC50.
The subject of data set [5] is Human betaherpesvirus 5. The experiment in a line: Antiviral activity against human Cytomegalovirus harboring ANCHOR infected in human MRC5 cells assessed as reduction in infection rate at 2.5 to 5 uM incubated for 6 days by Hoechst 33342 staining based microscopic analysis. Format: functional, cell-based. The following applies: dose microM 2.5-5, time 6.0 day.
The subject of data set [6] is Human betaherpesvirus 5. Nature of the data set: Antiviral activity against human Cytomegalovirus harboring ANCHOR infected in human ARPE-19 cells assessed as reduction in infection rate at 1.25 to 2.5 uM incubated for 10 days by Hoechst 33342 staining based microscopic analysis. It is filed as functional, cell-based. Particulars: dose microM 1.25-2.5, time 10.0 day.

The nature of data set [7]: Drug uptake in rabbit RK13 cells incubated for 24 hrs by Hoechst staining based microscopic analysis. It is filed as ADME, cell-based, Oryctolagus cuniculus. The following applies: rk13, 24 h.
Data set [8] is described as follows: Selectivity index, ratio of CC50 for human MRC5 cells to IC50 for human Cytomegalovirus infected in human MRC5 cells incubated for 6 days. It is filed as toxicity, cell-based. The following applies: time 6 day, read-out: Ratio CC50/IC50.
For data set [9], the system named is Human betaherpesvirus 5. Nature of the data set: Antiviral activity against human Cytomegalovirus infected in human ARPE-19 cells assessed as reduction in infection rate incubated for 10 days by Hoechst 33342 staining based microscopic analysis. Format: functional, cell-based. Particulars: Human betaherpesvirus 5, ARPE-19, 240 h; read-out: IC50.
Data set [10] can be described thus: Drug metabolism in human ARPE-19 cell culture at 10 uM incubated for 10 days. It is filed as ADME. The following applies: arpe-19, 240 h, time 10 day.
The test system of data set [11] is Human betaherpesvirus 5. The experiment in a line: Antiviral activity against letermovir resistant Cytomegalovirus UL56 R369G infected in human MRC5 cells assessed as reduction in infection rate at 600 nM incubated for 6 days by Hoechst 33342 staining based microscopic analysis. Format: functional, cell-based. Particulars: time 6.0 day.
Data set [12] deals with Human betaherpesvirus 5. The experiment in a line: Antiviral activity against ganciclovir resistant Cytomegalovirus UL54 D301N infected in human MRC5 cells assessed as reduction in infection rate incubated for 6 days by Hoechst 33342 staining based microscopic analysis. Particulars: time 6.0 day. Format: functional, cell-based.
Data set [13] deals with Human betaherpesvirus 5. Nature of the data set: Antiviral activity against ganciclovir resistant Cytomegalovirus UL54 D301N infected in human MRC5 cells assessed as reduction in viral DNA replication incubated for 6 days by Hoechst 33342 staining based microscopic analysis. The following applies: time 6.0 day. Format: functional, cell-based.
Data set [14] in a line: Selectivity index, ratio of CC50 for human MRC5 cells to IC50 for human Cytomegalovirus infected in human ARPE-19 cells incubated for 10 days. It is filed as toxicity, cell-based. Particulars: time 6 day, read-out: Ratio CC50/IC50.
Data set [15] concerns Human betaherpesvirus 5. Nature of the data set: Antiviral activity against human Cytomegalovirus infected in human ARPE-19 cells assessed as reduction in viral replication incubated for 12 days by Hoechst 33342 staining based microscopic analysis. It is filed as functional, cell-based. Particulars: Human betaherpesvirus 5, ARPE-19, 288 h.
In data set [16] the test system is Human betaherpesvirus 5. Nature of the data set: Antiviral activity against human Cytomegalovirus infected in human MRC5 cells assessed as reduction in viral replication incubated for 6 days by Hoechst 33342 staining based microscopic analysis. It is filed as functional, cell-based. Particulars: Human betaherpesvirus 5, MRC5, 144 h.
Data set [17] deals with Human betaherpesvirus 5. The experiment in a line: Antiviral activity against human Cytomegalovirus infected in human ARPE-19 cells assessed as reduction in viral replication incubated for 13 days by Hoechst 33342 staining based microscopic analysis. It is filed as functional, cell-based. Particulars: Human betaherpesvirus 5, ARPE-19, 312 h.
Data set [18] in a line: Selectivity index, ratio of CC50 for human MRC5 cells to IC50 for human Cytomegalovirus infected in human ARPE-19 cells incubated for 13 days. The following applies: time 6 day, read-out: Ratio CC50/IC50. Format: toxicity, cell-based.

For `Fc1cc(F)c(F)c(-c2c3nc(c4ccc([nH]4)c(-c4cc(F)cc(F)c4F)c4ccc([nH]4)c(-c4cc(F)cc(F)c4F)c4ccc2[nH]4)C=C3)c1`, the CC50 at 144 h in data set [1] and in data set [2] was above 50000 nM each time. The IC50 in data set [3] came out at 6000 nM; in data set [4] it was 3800 nM. Also, the outcome in data set [5] and in [6] was inactive. The Drug uptake result in data set [7] is reported as “Active”. Further, the selectivity ratio at 144 h in data set [8] is above 7.

As for `Fc1cc(F)c(F)c(-c2c3nc(c4ccc([nH]4)c(-c4c(F)c(F)cc(F)c4F)c4ccc([nH]4)c(-c4c(F)c(F)c(F)c(F)c4F)c4ccc2[nH]4)C=C3)c1F`, the CC50 at 144 h in data set [1] amounted to 16200 nM. Further, the figures for the IC50 in data set [3] and in data set [9] were 650 nM and 20 nM, respectively. Also, in data set [10], the Drug metabolism result was “Metabolite_Notdetected”. Besides, the Drug uptake entry in data set [7] was “Active”. The outcome in [11], in [12] and in data set [13] was Active. The selectivity ratio at 144 h was 24.9 in data set [8] and 416 in data set [14].

Turning to `Fc1ccc(F)c(-c2c3nc(c4ccc([nH]4)c(-c4c(F)ccc(F)c4F)c4ccc([nH]4)c(-c4c(F)ccc(F)c4F)c4ccc2[nH]4)C=C3)c1F`, the CC50 at 144 h in [1] was above 50000 nM. The IC50 in [15] was found to be 2300 nM; in [16], 1800 nM; in data set [17], 2300 nM. In addition, the selectivity ratio at 144 h is above 28 in [8] and above 21 in [18].
